# Measurements as given in patent publication US20260226073A1 (AURIGENE ONCOLOGY LIMITED, priority 2023, published 2026).
# Legend:
# [1] = target: T1, human recombinant CBL-b (human Biotin CBL-b recombinant protein a.a. 39-426) (Homo sapiens, UniProt Q13191); assay: Biochemical assay for CBL-b inhibition (ligand displacement TR-FRET); assay type: binding; settings: 50 nM CBL-b, 0.3 μM Bodipy FL-Probe, read-out: IC50 (CBL-b inhibition, group)
# T1 construct: human Biotin CBL-b recombinant protein a.a; 39-426; Biotin (biotinylated); made in house
# Procedure, shortened: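 Biotinylated CBL-b (a.a. 39-426, 50 nM final) pre-incubated with compound 60 min at RT in HEPES/NaCl/Triton/BSA/TCEP buffer, then Bodipy FL probe (0.3 μM final) 60 min, then terbium-streptavidin 60 min. TR-FRET read at 665/615 nm; IC50 and % max inhibition from sigmoidal fits.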
# [2] = system: NFAT signaling pathway in Jurkat NFAT reporter cells; assay: Jurkat NFAT reporter assay; assay type: cell-based; settings: Homo sapiens, 30 min with compound, then soluble anti-human CD3/CD28 antibody for 6 hours, luciferase readout, read-out: EC50 (Group)
# Experimental: A human T lymphocyte Jurkat reporter cell line was further used to assess activation of the nuclear factor of activated T-cells (NFAT) signaling pathway by Cbl-b inhibitors. The reporter cell line is a genetically engineered Jurkat T cell line that expresses a luciferase reporter driven by an NFAT-response element (NFAT-RE). The Cbl-b inhibitor was incubated with 1×10^5 Jurkat NFAT reporter cells per well for 30 minutes. Subsequently, cells were stimulated with soluble anti-human CD3/CD28 antibody for 6 hours resulting in NFAT-RE-mediated luminescence. The bioluminescent signal is detected and quantified using Bio-Glo™ Luciferase Assay System. Readouts were reported as fold change over baseline. Here, baseline was the measurement obtained from Jurkat NFAT reporter cells stimulated with anti-CD3 antibody and anti-CD28 antibody, where the cells were not incubated with a Cbl-b inhibitor.
# T1 sequence (Q13191 39-426): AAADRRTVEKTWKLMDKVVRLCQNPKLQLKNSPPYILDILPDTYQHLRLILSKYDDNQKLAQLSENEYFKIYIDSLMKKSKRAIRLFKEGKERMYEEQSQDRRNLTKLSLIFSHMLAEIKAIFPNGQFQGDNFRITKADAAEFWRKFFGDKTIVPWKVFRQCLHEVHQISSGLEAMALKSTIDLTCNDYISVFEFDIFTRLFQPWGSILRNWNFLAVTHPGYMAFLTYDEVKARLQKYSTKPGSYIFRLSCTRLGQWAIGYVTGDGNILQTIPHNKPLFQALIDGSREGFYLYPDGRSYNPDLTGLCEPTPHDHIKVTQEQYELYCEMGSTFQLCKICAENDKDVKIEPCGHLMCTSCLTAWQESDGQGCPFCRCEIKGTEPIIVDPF
SMILES,IC50 [1] [nM],EC50 [2] [nM]
"C[C@H]1CCCN(Cc2cc(Cl)nc(N3Cc4ccc([C@@H](C)Cc5nncn5C)cc4C3=O)c2)C1 (single isomer, unassigned) [Compound 91]",< 80,< 300
"CC(NC1CCCC1)c1cc(Cl)nc(N2Cc3ccc(-c4ccc(Cl)cc4-c4nncn4C)cc3C2=O)c1 (single isomer, unassigned) [Compound 104, 6-(4-Chloro-2-(4-methyl-4H-1,2,4-triazol-3-yl)phenyl)-2-(6-chloro-4-(1-(cyclo-pentylamino)ethyl)pyridin-2-yl)isoindolin-1-one]",< 80,< 300
"C[C@H](NC1CCCC1)c1cc(Cl)nc(N2Cc3ccc(-c4ccc(Cl)cc4-c4nncn4C)cc3C2=O)c1 (single isomer, unassigned) [Compound 105, 6-(4-Chloro-2-(4-methyl-4H-1,2,4-triazol-3-yl)phenyl)-2-(6-chloro-4-(1-(cyclo-pentylamino)ethyl)pyridin-2-yl)isoindolin-1-one]",< 80,< 300
"C[C@@H](NCc1cc(Cl)nc(N2Cc3ccc(-c4ccc(Cl)cc4-c4nncn4C)cc3C2=O)c1)C1CC1 (single isomer, unassigned) [Compound 108, 6-(4-Chloro-2-(4-methyl-4H-1,2,4-triazol-3-yl)phenyl)-2-(6-chloro-4-(((1-cyclo-propylethyl)amino)methyl)pyridin-2-yl)isoindolin-1-one]",< 80,< 300
"C[C@H](NCc1cc(Cl)nc(N2Cc3ccc(-c4ccc(Cl)cc4-c4nncn4C)cc3C2=O)c1)C1CC1 (single isomer, unassigned) [Compound 109, 6-(4-Chloro-2-(4-methyl-4H-1,2,4-triazol-3-yl)phenyl)-2-(6-chloro-4-(((1-cyclo-propylethyl)amino)methyl)pyridin-2-yl)isoindolin-1-one]",< 80,< 300
"C[C@@H](NCC1CC1)c1cc(Cl)nc(N2Cc3ccc(-c4ccc(Cl)cc4-c4nncn4C)cc3C2=O)c1 (single isomer, unassigned) [Compound 110, 6-(4-Chloro-2-(4-methyl-4H-1,2,4-triazol-3-yl)phenyl)-2-(6-chloro-4-(1-((cyclo-propylmethyl)amino)ethyl)pyridin-2-yl)isoindolin-1-one]",< 80,< 300
"C[C@H](NCC1CC1)c1cc(Cl)nc(N2Cc3ccc(-c4ccc(Cl)cc4-c4nncn4C)cc3C2=O)c1 (single isomer, unassigned) [Compound 111, 6-(4-Chloro-2-(4-methyl-4H-1,2,4-triazol-3-yl)phenyl)-2-(6-chloro-4-(1-((cyclo-propylmethyl)amino)ethyl)pyridin-2-yl)isoindolin-1-one]",< 80,< 300
"Cn1cnnc1-c1cc(Cl)ccc1-c1ccc2c(c1)C(=O)N(c1cc(CNC[C@@H]3CCCO3)cc(Cl)n1)C2 (single isomer, unassigned) [Compound 123, 6-(4-Chloro-2-(4-methyl-4H-1,2,4-triazol-3-yl)phenyl)-2-(6-chloro-4-((((tetra-hydrofuran-2-yl)methyl)amino)methyl)pyridin-2-yl)isoindolin-1-one]",< 80,300 to 1000
"Cn1cnnc1-c1cc(Cl)ccc1-c1ccc2c(c1)C(=O)N(c1cc(CNC[C@H]3CCCO3)cc(Cl)n1)C2 (single isomer, unassigned) [Compound 124, 6-(4-Chloro-2-(4-methyl-4H-1,2,4-triazol-3-yl)phenyl)-2-(6-chloro-4-((((tetra-hydrofuran-2-yl)methyl)amino)methyl)pyridin-2-yl)isoindolin-1-one]",< 80,< 300
"Cc1cc([C@H](C)NC2CCCC2)cc(N2Cc3ccc(-c4ccc(Cl)cc4-c4nncn4C)cc3C2=O)n1 (single isomer, unassigned) [Compound 125, 6-(4-Chloro-2-(4-methyl-4H-1,2,4-triazol-3-yl)phenyl)-2-(4-(1-(cyclopentyl-amino)ethyl)-6-methylpyridin-2-yl)isoindolin-1-one]",< 80,< 300
"Cc1cc([C@@H](C)NC2CCCC2)cc(N2Cc3ccc(-c4ccc(Cl)cc4-c4nncn4C)cc3C2=O)n1 (single isomer, unassigned) [Compound 126, 6-(4-Chloro-2-(4-methyl-4H-1,2,4-triazol-3-yl)phenyl)-2-(4-(1-(cyclopentyl-amino)ethyl)-6-methylpyridin-2-yl)isoindolin-1-one]",< 80,< 300
"C[C@@H](Cc1nncn1C)c1ccc2c(c1)C(=O)N(c1cc(CNCC3CC3)cc(Cl)n1)C2 (single isomer, unassigned) [Compound 160]",< 80,300 to 1000
"C[C@H](Cc1nncn1C)c1ccc2c(c1)C(=O)N(c1cc(CNCC3CC3)cc(Cl)n1)C2 (single isomer, unassigned) [Compound 161]",< 80,300 to 1000
"C[C@@H](Cc1nncn1C)c1ccc2c(c1)C(=O)N(c1cc(CNCCC(F)(F)F)cc(Cl)n1)C2 (single isomer, unassigned) [Compound 163]",< 80,300 to 1000
"C[C@H](Cc1nncn1C)c1ccc2c(c1)C(=O)N(c1cc(CNCCC(F)(F)F)cc(Cl)n1)C2 (single isomer, unassigned) [Compound 164]",< 80,1000 to 10000
"C[C@@H](NCC1CC1)c1cc(Cl)nc(N2Cc3ccc(C4(Cc5nncn5C)COC4)cc3C2=O)c1 (single isomer, unassigned) [Compound 166]",< 80,< 300

SMILES,IC50 [1] [nM],EC50 [2] [nM]
"C[C@H](NCC1CC1)c1cc(Cl)nc(N2Cc3ccc(C4(Cc5nncn5C)COC4)cc3C2=O)c1 (single isomer, unassigned) [Compound 167]",< 80,< 300
"C[C@H](Cc1nncn1C)c1ccc2c(c1)C(=O)N(c1cc(CNCC3CCC3)cc(Cl)n1)C2 (single isomer, unassigned) [Compound 170]",< 80,< 300
"C[C@@H](Cc1nncn1C)c1ccc2c(c1)C(=O)N(c1cc(CNCC3CCC3)cc(Cl)n1)C2 (single isomer, unassigned) [Compound 171]",< 80,< 300
"C[C@H]1CCCN(Cc2cc(Cl)nc(N3Cc4ccc([C@]5(Cc6nncn6C)C[C@@H](C#N)C5)cc4C3=O)c2)C1 (single isomer, unassigned) [Compound 179]",< 80,< 300
"C[C@H]1CCCN(Cc2cc(Cl)nc(N3Cc4ccc([C@H](Cc5nncn5C)C(F)(F)F)cc4C3=O)c2)C1 (single isomer, unassigned) [Compound 181]",< 80,300 to 1000
"Cn1cnnc1CC1(c2ccc3c(c2)C(=O)N(c2cc(CNC[C@H]4CCCO4)cc(Cl)n2)C3)COC1 (single isomer, unassigned) [Compound 195]",< 80,1000 to 10000
"Cn1cnnc1CC1(c2ccc3c(c2)C(=O)N(c2cc(CNC[C@@H]4CCCO4)cc(Cl)n2)C3)COC1 (single isomer, unassigned) [Compound 196]",< 80,< 300
"CC(NCC1CC1(F)F)c1cc(Cl)nc(N2Cc3ccc(C4(Cc5nncn5C)COC4)cc3C2=O)c1 (single isomer, unassigned) [Compound 206, 2-(6-Chloro-4-(1-(((2,2-difluorocyclopropyl)methyl)amino)ethyl)pyridin-2-yl)-6-(3-((4-methyl-4H-1,2,4-triazol-3-yl)methyl)oxetan-3-yl)isoindolin-1-one]",< 80,< 300
"CC(NCC1CCC1)c1cc(Cl)nc(N2Cc3ccc(C4(Cc5nncn5C)COC4)cc3C2=O)c1 (single isomer, unassigned) [Compound 213, 2-(6-Chloro-4-(1-((cyclobutylmethyl)amino)ethyl)pyridin-2-yl)-6-(3-((4-methyl-4H-1,2,4-triazol-3-yl)methyl)oxetan-3-yl)isoindolin-1-one]",< 80,< 300
"C[C@H](NCc1cscn1)c1cc(Cl)nc(N2Cc3ccc(C4(Cc5nncn5C)COC4)cc3C2=O)c1 (single isomer, unassigned) [Compound 218]",< 80,300 to 1000
"C[C@@H](NC[C@@H]1CCCO1)c1cc(Cl)nc(N2Cc3ccc(C4(Cc5nncn5C)COC4)cc3C2=O)c1 (single isomer, unassigned) [Compound 219]",< 80,< 300
"C[C@@H](NCC1CC(F)(F)C1)c1cc(Cl)nc(N2Cc3ccc(C4(Cc5nncn5C)COC4)cc3C2=O)c1 (single isomer, unassigned) [Compound 221]",< 80,< 300
"C[C@H](NCC1CC(F)(F)C1)c1cc(Cl)nc(N2Cc3ccc(C4(Cc5nncn5C)COC4)cc3C2=O)c1 (single isomer, unassigned) [Compound 222]",< 80,< 300
"C[C@H](NCc1cc(Cl)nc(N2Cc3ccc(C4(Cc5nncn5C)COC4)cc3C2=O)c1)C1CC1 (single isomer, unassigned) [Compound 223]",< 80,< 300
"C[C@@H](NCc1cc(Cl)nc(N2Cc3ccc(C4(Cc5nncn5C)COC4)cc3C2=O)c1)C1CC1 (single isomer, unassigned) [Compound 224]",< 80,300 to 1000
